Results: PMC8878047 (Pharmaceutics, 2022)
Where two headings read alike, the source gives them in different places.

What was measured:
E. coli = assay: Quasi-clinical trial on E. coli-infected AA broilers (drug-mixed feeding); conditions: for Average Final Weight / Average Weight Gain / Average Increment of Weight / Cure Rate (%) / Survival Number: AA broilers; for Average Weight Gain: Table 7; for Average Increment of Weight: Table 8; for Cure Rate (%) / Survival Number: 6 d; for Survival Number: 50 per group
Experimental: Then, broilers were randomly and equally divided into five different groups and marked as five groups. […] Note that the daily drug-mixed feeding ratio (g drug/kg feed) was indicated for the first 4 h every day, and unmedicated feed then followed. In addition, E. coli strains for the infection of chicken was supplied as a freeze-dried powder. They were revived and cultured according to the standard procedures. The strain was inoculated into a liquid medium and cultured in a 37 °C incubator for 6–8 h. We detected the concentration of the bacterial liquid to be 2.8 × 10^8 CFU/mL as the pathogenic concentration. Finally, all of the chickens except the healthy control group were intramuscularly injected with 0.5 mL of pathogenic bacteria, and all chickens were fasted for 4 h. After successfully simulating the bacterial infection of the chickens, the drug-mixed feeding chickens were continuously fed for 6 d. During this time, we observed their behavioral habits, mortality, and recovery rates.

[1] = system: wild type AB strain zebrafish; conditions: for statistical death of the tested zebrafish / statistical survival of the tested zebrafish: 30 embryos per well
Experimental: Zebrafish were incubated and grown in the Joint Laboratory established by Shandong Rui’ying Pharmaceutical Group (Heze, China) and China Pharmaceutical University. Both the Wild-type AB (Danio rerio) and Tg(mpx:eGFP) zebrafish strains were maintained under the guidance of the standard procedures of The Zebrafish Book. […] Then the zebrafish were allowed to naturally mate and spawn the next morning. The normally born embryos were then collected after 1 h and kept in an incubating system at 28 °C. The 6 hpf (hour post fertilization) embryos were transferred into a 6-well plate exposed to 5 mL of egg water, in which 30 embryos were in each well.

[2] = EFX-Ca High 14 g drug (5% solution) + 1.5 kg feed/4 h
[3] = EFX-Ca Low 6 g drug (5% solution) + 1.5 kg feed/4 h
[4] = EFX-Ca Medium 9 g + 1.5 kg feed
[5] = EFX-Ca Medium 9 g drug (5% solution) + 1.5 kg feed/4 h
[6] = 0.01 μM medicated bath, 120 hpf

## CCN1CCN(c2cc3c(cc2F)c(=O)c(C(=O)[O-])cn3C2CC2)CC1.CCN1CCN(c2cc3c(cc2F)c(=O)c(C(=O)[O-])cn3C2CC2)CC1.O.O.O.O.[Ca+2] [EFX-Ca, [Ca(EFX)2(H2O)4]·H2O]
E. coli; EFX-Ca High 14 g + 1.5 kg feed
  Average Final Weight: 1750 ± 125 g
  Average Weight Gain: 250
  Average Increment of Weight: 230 g
E. coli; [2]
  Cure Rate (%): 60%
  Survival Number: 30
E. coli; EFX-Ca Low 6 g + 1.5 kg feed
  Average Final Weight: 1690 ± 95 g
  Average Weight Gain: 190
  Average Increment of Weight: 190 g
E. coli; [3]
  Cure Rate (%): 54%
  Survival Number: 27
E. coli; [4]
  Average Final Weight: 1640 ± 73 g
  Average Weight Gain: 140
  Average Increment of Weight: 280 g
E. coli; [5]
  Cure Rate (%): 78%
  Survival Number: 39
E. coli; AA infected chickens, EFX-Ca medium dose vs EFX
  highest cure rate, higher than the EFX dose group by: 25.8%
[1]; 0.01 μM medicated bath, 24 hpf
  statistical death of the tested zebrafish: 6
  statistical survival of the tested zebrafish: 24
[1]; 0.01 μM medicated bath, 48 hpf
  statistical death of the tested zebrafish: 6
  statistical survival of the tested zebrafish: 24
[1]; 0.01 μM medicated bath, 72 hpf
  statistical death of the tested zebrafish: 6
  statistical survival of the tested zebrafish: 24
[1]; 0.01 μM medicated bath, 96 hpf
  statistical death of the tested zebrafish: 8
  statistical survival of the tested zebrafish: 22
[1]; [6]
  statistical death of the tested zebrafish: 8
  statistical survival of the tested zebrafish: 22
[1]; 0.1 μM medicated bath, 24 hpf
  statistical death of the tested zebrafish: 4
  statistical survival of the tested zebrafish: 26
[1]; 0.1 μM medicated bath, 48 hpf
  statistical death of the tested zebrafish: 4
  statistical survival of the tested zebrafish: 26
[1]; 0.1 μM medicated bath, 72 hpf
  statistical death of the tested zebrafish: 4
  statistical survival of the tested zebrafish: 26
[1]; 0.1 μM medicated bath, 96 hpf
  statistical death of the tested zebrafish: 4
  statistical survival of the tested zebrafish: 26
[1]; 0.1 μM medicated bath, 120 hpf
  statistical death of the tested zebrafish: 4
  statistical survival of the tested zebrafish: 26
[1]; 1 μM medicated bath, 24 hpf
  statistical death of the tested zebrafish: 2
  statistical survival of the tested zebrafish: 28
[1]; 1 μM medicated bath, 48 hpf
  statistical death of the tested zebrafish: 2
  statistical survival of the tested zebrafish: 28
[1]; 1 μM medicated bath, 72 hpf
  statistical death of the tested zebrafish: 2
  statistical survival of the tested zebrafish: 28
[1]; 1 μM medicated bath, 96 hpf
  statistical death of the tested zebrafish: 2
  statistical survival of the tested zebrafish: 28
[1]; 1 μM medicated bath, 120 hpf
  statistical death of the tested zebrafish: 2
  statistical survival of the tested zebrafish: 28
[1]; 10 μM medicated bath, 24 hpf
  statistical death of the tested zebrafish: 4
  statistical survival of the tested zebrafish: 26
[1]; 10 μM medicated bath, 48 hpf
  statistical death of the tested zebrafish: 4
  statistical survival of the tested zebrafish: 26
[1]; 10 μM medicated bath, 72 hpf
  statistical death of the tested zebrafish: 4
  statistical survival of the tested zebrafish: 26
[1]; 10 μM medicated bath, 96 hpf
  statistical death of the tested zebrafish: 4
  statistical survival of the tested zebrafish: 26
[1]; 10 μM medicated bath, 120 hpf
  statistical death of the tested zebrafish: 4
  statistical survival of the tested zebrafish: 26
[1]; 20 μM medicated bath, 24 hpf
  statistical death of the tested zebrafish: 0
  statistical survival of the tested zebrafish: 30
[1]; 20 μM medicated bath, 48 hpf
  statistical death of the tested zebrafish: 0
  statistical survival of the tested zebrafish: 30
[1]; 20 μM medicated bath, 72 hpf
  statistical death of the tested zebrafish: 0
  statistical survival of the tested zebrafish: 30
[1]; 20 μM medicated bath, 96 hpf
  statistical death of the tested zebrafish: 0
  statistical survival of the tested zebrafish: 30
[1]; 20 μM medicated bath, 120 hpf
  statistical death of the tested zebrafish: 0
  statistical survival of the tested zebrafish: 30
[1]; full-range concentration 0.01 to 20 μM, 24 to 120 hpf
  physiological abnormalities of zebrafish: no obvious physiological abnormalities
